Measured values published in US8541588B2, “Sulfonamide derivatives” (Pfizer Limited, priority 2009, dated 2013).

These compounds were tested against T1, Nav1.7 (or SCN9A) channel; HEK cells stably transfected with hSCN9A (Homo sapiens, UniProt Q15858) (assay: Nav1.7 block, PatchXpress 7000 automated whole-cell voltage clamp, estimated IC50 (EIC50)). Details: PatchXpress platform; hSCN9A HEK cells held at V1/2 of inactivation; estimated IC50.
T1 construct: expressed in transfected cells
Format: cell-based

T1 sequence (Q15858 whole entry): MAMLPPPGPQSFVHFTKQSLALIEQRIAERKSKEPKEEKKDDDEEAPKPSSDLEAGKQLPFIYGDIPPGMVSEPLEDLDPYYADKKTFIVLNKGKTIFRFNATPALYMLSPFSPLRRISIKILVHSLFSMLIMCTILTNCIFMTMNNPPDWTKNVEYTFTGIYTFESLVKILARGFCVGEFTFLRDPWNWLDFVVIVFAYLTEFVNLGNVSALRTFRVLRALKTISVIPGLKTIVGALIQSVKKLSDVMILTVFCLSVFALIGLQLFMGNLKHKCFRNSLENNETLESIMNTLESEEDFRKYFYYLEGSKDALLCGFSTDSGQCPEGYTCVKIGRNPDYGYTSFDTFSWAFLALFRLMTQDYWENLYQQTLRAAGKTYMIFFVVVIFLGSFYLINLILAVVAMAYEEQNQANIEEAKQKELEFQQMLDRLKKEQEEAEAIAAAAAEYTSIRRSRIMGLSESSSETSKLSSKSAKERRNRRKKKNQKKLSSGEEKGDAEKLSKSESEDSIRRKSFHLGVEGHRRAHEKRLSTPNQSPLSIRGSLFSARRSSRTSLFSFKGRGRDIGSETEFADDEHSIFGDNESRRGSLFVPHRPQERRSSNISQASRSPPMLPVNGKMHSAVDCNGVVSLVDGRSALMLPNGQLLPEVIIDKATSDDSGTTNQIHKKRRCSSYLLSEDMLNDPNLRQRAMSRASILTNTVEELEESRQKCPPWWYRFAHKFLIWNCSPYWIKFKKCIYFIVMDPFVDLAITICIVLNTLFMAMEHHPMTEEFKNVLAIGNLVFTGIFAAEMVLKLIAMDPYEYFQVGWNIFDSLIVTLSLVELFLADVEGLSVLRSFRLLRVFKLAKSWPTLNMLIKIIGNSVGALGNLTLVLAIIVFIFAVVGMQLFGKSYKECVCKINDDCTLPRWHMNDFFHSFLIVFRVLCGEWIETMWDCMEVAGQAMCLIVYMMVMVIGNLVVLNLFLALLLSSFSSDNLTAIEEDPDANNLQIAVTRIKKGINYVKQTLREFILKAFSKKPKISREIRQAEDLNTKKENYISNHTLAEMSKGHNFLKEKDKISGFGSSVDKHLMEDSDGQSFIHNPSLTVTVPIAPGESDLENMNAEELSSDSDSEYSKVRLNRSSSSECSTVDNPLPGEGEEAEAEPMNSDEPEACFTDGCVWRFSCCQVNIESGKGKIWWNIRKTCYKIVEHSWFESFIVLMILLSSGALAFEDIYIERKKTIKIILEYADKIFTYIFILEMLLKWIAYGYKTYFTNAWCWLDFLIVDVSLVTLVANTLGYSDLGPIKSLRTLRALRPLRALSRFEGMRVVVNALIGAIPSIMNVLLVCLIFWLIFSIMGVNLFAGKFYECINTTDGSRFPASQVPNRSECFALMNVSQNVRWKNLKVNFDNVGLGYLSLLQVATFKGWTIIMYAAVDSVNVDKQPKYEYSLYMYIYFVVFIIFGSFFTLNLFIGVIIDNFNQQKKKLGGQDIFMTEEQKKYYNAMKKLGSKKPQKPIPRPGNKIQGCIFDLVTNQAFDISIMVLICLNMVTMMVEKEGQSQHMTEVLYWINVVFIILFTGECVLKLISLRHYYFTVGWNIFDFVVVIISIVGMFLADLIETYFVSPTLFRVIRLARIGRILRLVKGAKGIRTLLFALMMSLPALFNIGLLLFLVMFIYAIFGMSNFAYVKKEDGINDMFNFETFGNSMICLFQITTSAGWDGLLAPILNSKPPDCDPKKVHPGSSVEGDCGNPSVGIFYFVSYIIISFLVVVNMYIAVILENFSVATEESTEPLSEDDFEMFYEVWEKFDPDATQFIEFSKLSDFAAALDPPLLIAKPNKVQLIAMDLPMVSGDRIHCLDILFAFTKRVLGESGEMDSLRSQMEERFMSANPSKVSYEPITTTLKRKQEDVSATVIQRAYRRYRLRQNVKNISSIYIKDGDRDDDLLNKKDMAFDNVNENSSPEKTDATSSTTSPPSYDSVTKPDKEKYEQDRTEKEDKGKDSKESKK

| SMILES | IC50 [nM] |
| --- | --- |
| Cc1cc(Oc2ccc(S(=O)(=O)Nc3nccs3)cc2F)n(-c2ccccc2)n1 [Example 231, 3-fluoro-4-(5-methyl-2-phenyl-2H-pyrazol-3-yloxy)-N-thiazol-2-yl-benzenesulfonamide] | 470 |
| O=S(=O)(Nc1nccs1)c1ccc(Oc2ccc(Oc3ccccc3)cc2)c(F)c1 [Example 127, 3-fluoro-4-(4-phenoxyphenoxy)-N-1,3-thiazol-2-ylbenzenesulfonamide] | >10000 |
| O=S(=O)(Nc1ncns1)c1cc(F)c(Oc2ccn(Cc3ccc(Cl)cc3)n2)c(F)c1 [Example 265, 4-{[1-(4-chlorobenzyl)-1H-pyrazol-3-yl]oxy}-3,5-difluoro-N-1,2,4-thiadiazol-5-ylbenzenesulfonamide] | 38900 |

The next lines start with the values.

| IC50 [nM] | SMILES |
| --- | --- |
| 21700 | Cc1cccc(-c2ccccc2F)c1Oc1ccc(S(=O)(=O)Nc2ncns2)cc1C#N [Example 43, 3-cyano-4-[(2′-fluoro-3-methylbiphenyl-2-yl)oxy]-N-1,2,4-thiadiazol-5-ylbenzenesulfonamide] |
| 120 | O=S(=O)(Nc1nccs1)c1ccc(Oc2ccccc2-c2ccccc2)c(F)c1 [Example 242, 4-(biphenyl-2-yloxy)-3-fluoro-N-thiazol-2-yl-benzenesulfonamide] |
| 100 | Cn1nccc1-c1ccccc1Oc1ccc(S(=O)(=O)Nc2nccs2)cc1F [Example 3, 3-fluoro-4-(2-(1-methyl-1H-pyrazol-5-yl)phenoxy)-N-(thiazol-2-yl)benzenesulfonamide] |
| 1300 | Cc1nsc(NS(=O)(=O)c2ccc(Oc3ccccc3-c3ccccc3)c(C#N)c2)n1 [Example 103, 4-(biphenyl-2-yloxy)-3-cyano-N-(3-methyl-1,2,4-thiadiazol-5-yl)benzenesulfonamide] |
| 840 | N#Cc1cc(S(=O)(=O)Nc2ncns2)ccc1Oc1ccccc1-c1ccccc1F [Example 50, 3-cyano-4-[(2′-fluorobiphenyl-2-yl)oxy]-N-1,2,4-thiadiazol-5-ylbenzenesulfonamide] |

Same assay, conditions: estimated IC50; hSCN9A HEK cells, PatchXpress platform; Examples 283-814

| SMILES | IC50 [nM] |
| --- | --- |
| Cn1nc(C(F)F)cc1-c1ccc(Oc2ccc(S(=O)(=O)Nc3nccs3)cc2C#N)cc1 [Example 383, 3-cyano-4-{4-[3-(difluoromethyl)-1-methyl-1H-pyrazol-5-yl]phenoxy}-N-1,3-thiazol-2-ylbenzenesulfonamide] | 310 |
| Cn1nc(C(F)(F)F)cc1-c1cc(Cl)ccc1Oc1ccc(S(=O)(=O)Nc2cscn2)cc1C#N [Example 395, 4-{4-chloro-2-[1-methyl-3-(trifluoromethyl)-1H-pyrazol-5-yl]phenoxy}-3-cyano-N-1,3-thiazol-4-ylbenzenesulfonamide] | 1800 |
| O=S(=O)(Nc1ncns1)c1cc(F)c(Oc2cc(Cl)c(F)cc2-c2cn[nH]c2)cc1F [Example 752, 4-[5-chloro-4-fluoro-2-(1H-pyrazol-4-yl)phenoxy]-2,5-difluoro-N-1,2,4-thiadiazol-5-ylbenzenesulfonamide] | 2.1 |
| N#Cc1cc(S(=O)(=O)Nc2nccs2)ccc1Oc1cnn(-c2ccc(Cl)cc2Cl)c1 [Example 333, 3-cyano-4-{[1-(2,4-dichlorophenyl)-1H-pyrazol-4-yl]oxy}-N-1,3-thiazol-2-ylbenzenesulfonamide] | >1000 |
| CN1CC(n2nccc2-c2cc(F)ccc2Oc2cc(F)c(S(=O)(=O)Nc3ncns3)cc2Cl)C1 [Example 806, 5-Chloro-2-fluoro-4-{4-fluoro-2-[1-(1-methylazetidin-3-yl)-1H-pyrazol-5-yl]phenoxy}-N-1,2,4-thiadiazol-5-ylbenzenesulfonamide] | 5.4 |
| N#Cc1cc(S(=O)(=O)Nc2ncc(F)s2)ccc1Oc1ccc(Cl)c(Cn2cccn2)c1 [Example 534, 4-[4-chloro-3-(1H-pyrazol-1-ylmethyl)phenoxy]-3-cyano-N-(5-fluoro-1,3-thiazol-2-yl)benzenesulfonamide] | 500 |
| Cc1cc(C)n(-c2ccc(Oc3ccc(S(=O)(=O)Nc4nccs4)c(F)c3)cc2)n1 [Example 610, 4-[4-(3,5-Dimethyl-1H-pyrazol-1-yl)phenoxy]-2-fluoro-N-1,3-thiazol-2-ylbenzenesulfonamide] | >1000 |
| Cn1nc(C(F)(F)F)cc1-c1ccc(Oc2cc(F)c(S(=O)(=O)Nc3ncc(F)s3)cc2F)cc1 [Example 682, 2,5-difluoro-N-(5-fluoro-1,3-thiazol-2-yl)-4-{4-[1-methyl-3-(trifluoromethyl)-1H-pyrazol-5-yl]phenoxy}benzenesulfonamide] | 710 |
| O=S(=O)(Nc1nncs1)c1cc(Cl)c(Oc2ccc(Cl)cc2-c2ccn[nH]2)cc1F [Example 300, 5-chloro-4-[4-chloro-2-(1H-pyrazol-5-yl)phenoxy]-2-fluoro-N-1,3,4-thiadiazol-2-ylbenzenesulfonamide] | 39 |

Further lines, results first:

| IC50 [nM] | SMILES |
| --- | --- |
| 2200 | Cc1coc(-c2ccc(Oc3ccc(S(=O)(=O)Nc4nccs4)cc3C#N)cc2)n1 [Example 317, 3-cyano-4-[4-(4-methyl-1,3-oxazol-2-yl)phenoxy]-N-1,3-thiazol-2-ylbenzenesulfonamide] |
| 2600 | N#Cc1cc(S(=O)(=O)Nc2nccs2)ccc1Oc1ccc(Oc2ccccc2)nc1 [Example 644, 3-cyano-4-[(6-phenoxypyridin-3-yl)oxy]-N-1,3-thiazol-2-ylbenzenesulfonamide] |
| 1300 | Cc1coc(-c2cc(Cl)ccc2Oc2ccc(S(=O)(=O)Nc3nccs3)cc2C#N)n1 [Example 318, 4-[4-chloro-2-(4-methyl-1,3-oxazol-2-yl)phenoxy]-3-cyano-N-1,3-thiazol-2-ylbenzenesulfonamide] |
| 1800 | N#Cc1cc(S(=O)(=O)Nc2nccs2)ccc1Oc1cccc(-c2cc(C(F)(F)F)ccn2)c1 [Example 447, 3-cyano-N-1,3-thiazol-2-yl-4-{3-[4-(trifluoromethyl)pyridin-2-yl]phenoxy}benzenesulfonamide] |
| 300 | N#Cc1cc(S(=O)(=O)Nc2cscn2)ccc1Oc1ccc(OC(F)(F)F)cc1-c1cn[nH]c1 [Example 599, 3-cyano-4-[2-(1H-pyrazol-4-yl)-4-(trifluoromethoxy)phenoxy]-N-1,3-thiazol-4-ylbenzenesulfonamide] |
| 2900 | COCc1cccc(-c2cc(Oc3ccc(S(=O)(=O)Nc4ncc(F)s4)cc3C#N)ccc2Cl)c1 [Example 532, 4-{[6-chloro-3′-(methoxymethyl)biphenyl-3-yl]oxy}-3-cyano-N-(5-fluoro-1,3-thiazol-2-yl)benzenesulfonamide] |

Same assay, conditions: estimated IC50; hSCN9A HEK cells, PatchXpress platform; Examples 815-1040

| SMILES | IC50 [nM] |
| --- | --- |
| N#Cc1cc(S(=O)(=O)Nc2nncs2)ccc1Oc1ccc(Cl)cc1-c1cc(N2CCOCC2)ncn1 [Example 876, 4-[4-chloro-2-(6-morpholin-4-ylpyrimidin-4-yl)phenoxy]-3-cyano-N-1,3,4-thiadiazol-2-ylbenzenesulfonamide] | >1000 |
| Nc1n[nH]cc1-c1cc(Cl)ccc1Oc1cc(F)c(S(=O)(=O)Nc2cccnn2)cc1Cl [Example 1038, 4-[2-(3-amino-1H-pyrazol-4-yl)-4-chlorophenoxy]-5-chloro-2-fluoro-N-pyridazin-3-ylbenzenesulfonamide] | 34 |
| Cc1cc(S(=O)(=O)Nc2nncs2)c(F)cc1Oc1ccc(OC(F)(F)F)cc1-c1ccnnc1 [Example 1037, 2-fluoro-5-methyl-4-[2-pyridazin-4-yl-4-(trifluoromethoxy)phenoxy]-N-1,3,4-thiadiazol-2-ylbenzenesulfonamide] | 12 |
| O=S(=O)(Nc1ncns1)c1cc(Cl)c(Oc2ccc(Cl)cc2-c2ccnnc2)cc1F [Example 910, 5-chloro-4-(4-chloro-2-pyridazin-4-ylphenoxy)-2-fluoro-N-1,2,4-thiadiazol-5-ylbenzenesulfonamide] | 12 |
| O=S(=O)(Nc1cccnn1)c1ccc(Oc2ccc(Cl)cc2-c2ccnnc2)c(Cl)c1 [Example 869, 3-chloro-4-(4-chloro-2-pyridazin-4-ylphenoxy)-N-pyridazin-3-ylbenzenesulfonamide] | 540 |
| Nc1n[nH]cc1-c1cc(Cl)ccc1Oc1ccc(S(=O)(=O)Nc2ccncn2)cc1Cl [Example 973, 4-[2-(3-amino-1H-pyrazol-4-yl)-4-chlorophenoxy]-3-chloro-N-pyrimidin-4-ylbenzenesulfonamide] | 25 |
| O=S(=O)(Nc1ncns1)c1ccc(Oc2cc(Cl)c(F)cc2-c2ccnnc2)c(F)c1 [Example 934, 4-(5-chloro-4-fluoro-2-pyridazin-4-ylphenoxy)-3-fluoro-N-1,2,4-thiadiazol-5-ylbenzenesulfonamide] | 53 |
| Nc1cc(-c2cc(Cl)ccc2Oc2cc(F)c(S(=O)(=O)Nc3cccnn3)cc2Cl)ccn1 [Example 1031, 4-[2-(2-aminopyridin-4-yl)-4-chlorophenoxy]-5-chloro-2-fluoro-N-pyridazin-3-ylbenzenesulfonamide] | 29 |

More lines, now with the values ahead:

| IC50 [nM] | SMILES |
| --- | --- |
| 7.9 | Cc1nocc1-c1cc(Cl)ccc1Oc1ccc(S(=O)(=O)Nc2ncns2)cc1C#N [Example 961, 4-[4-chloro-2-(3-methylisoxazol-4-yl)phenoxy]-3-cyano-N-1,2,4-thiadiazol-5-ylbenzenesulfonamide] |
| 6300 | Cn1nccc1-c1cc(Cl)ccc1Oc1ccc(S(=O)(=O)Nc2cnccn2)cc1C#N [Example 885, 4-[4-chloro-2-(1-methyl-1H-pyrazol-5-yl)phenoxy]-3-cyano-N-pyrazin-2-ylbenzenesulfonamide] |
| 740 | N#Cc1ccc(-c2cc(Cl)ccc2Oc2ccc(S(=O)(=O)Nc3ncns3)cc2C#N)nc1 [Example 853, 4-[4-chloro-2-(5-cyanopyridin-2-yl)phenoxy]-3-cyano-N-1,2,4-thiadiazol-5-ylbenzenesulfonamide] |
| 1.4 | N#Cc1cc(S(=O)(=O)Nc2ncns2)ccc1Oc1ccc(Cl)cc1-c1cccc(CN2CC(CO)(CO)C2)c1 [Example 867, 4-[(3′-{[3,3-bis(hydroxymethyl)azetidin-1-yl]methyl}-5-chlorobiphenyl-2-yl)oxy]-3-cyano-N-1,2,4-thiadiazol-5-ylbenzenesulfonamide] |
| >10 | N#Cc1cc(S(=O)(=O)Nc2ncc(Cl)s2)ccc1Oc1ccc(F)cc1-c1cccc(N)n1 [Example 991, 4-[2-(6-aminopyridin-2-yl)-4-fluorophenoxy]-N-(5-chloro-1,3-thiazol-2-yl)-3-cyanobenzenesulfonamide] |
